Data from PubChem BioAssay (NCI).
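Cultured in 96-well plates, cells were exposed to test compound for 48 hours across five concentrations. TGI denotes the concentration required for complete inhibition of growth.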

Experiments:
Assay in all cases: NCI tumour cell line growth inhibition, 48 h
EKVX NSCLC = tested on: EKVX NSCLC
BT-549 breast = tested on: BT-549 breast
SF-539 CNS = tested on: SF-539 CNS
SK-MEL-28 melanoma = tested on: SK-MEL-28 melanoma
OVCAR-5 ovarian = tested on: OVCAR-5 ovarian
HL-60(TB) leukemia = tested on: HL-60(TB) leukemia
IGROV1 ovarian = tested on: IGROV1 ovarian
MOLT-4 leukemia = tested on: MOLT-4 leukemia
KM12 colon = tested on: KM12 colon
MDA-N = tested on: MDA-N
MCF7 breast = tested on: MCF7 breast
SK-MEL-5 melanoma = tested on: SK-MEL-5 melanoma
HCC-2998 colon = tested on: HCC-2998 colon
HS 578T breast = tested on: HS 578T breast
UO-31 renal = tested on: UO-31 renal
LOX IMVI melanoma = tested on: LOX IMVI melanoma
ACHN renal = tested on: ACHN renal
A549 NSCLC = tested on: A549 NSCLC
NCI/ADR-RES ovarian = tested on: NCI/ADR-RES ovarian
NCI-H23 lung = tested on: NCI-H23 lung
SK-OV-3 ovarian = tested on: SK-OV-3 ovarian
HT29 colon = tested on: HT29 colon
MDA-MB-231 breast = tested on: MDA-MB-231 breast
NCI-H522 lung = tested on: NCI-H522 lung
SF-295 CNS = tested on: SF-295 CNS
OVCAR-8 ovarian = tested on: OVCAR-8 ovarian
T-47D breast = tested on: T-47D breast
UACC-62 melanoma = tested on: UACC-62 melanoma
SN12C renal = tested on: SN12C renal
SR leukemia = tested on: SR leukemia
UACC-257 melanoma = tested on: UACC-257 melanoma
SNB-75 CNS = tested on: SNB-75 CNS
MDA-MB-435 = tested on: MDA-MB-435
DU-145 prostate = tested on: DU-145 prostate
HOP-92 NSCLC = tested on: HOP-92 NSCLC
HCT-15 colon = tested on: HCT-15 colon
U251 CNS = tested on: U251 CNS
CAKI-1 renal = tested on: CAKI-1 renal
A498 renal = tested on: A498 renal
SNB-19 CNS = tested on: SNB-19 CNS
HOP-62 NSCLC = tested on: HOP-62 NSCLC
OVCAR-4 ovarian = tested on: OVCAR-4 ovarian
786-0 renal = tested on: 786-0 renal
RXF 393 renal = tested on: RXF 393 renal
NCI-H226 lung = tested on: NCI-H226 lung
SF-268 CNS = tested on: SF-268 CNS
M14 melanoma = tested on: M14 melanoma
SK-MEL-2 melanoma = tested on: SK-MEL-2 melanoma
COLO 205 colon = tested on: COLO 205 colon
PC-3 prostate = tested on: PC-3 prostate
NCI-H460 lung = tested on: NCI-H460 lung
OVCAR-3 ovarian = tested on: OVCAR-3 ovarian
K-562 leukemia = tested on: K-562 leukemia
MALME-3M melanoma = tested on: MALME-3M melanoma
HCT-116 colon = tested on: HCT-116 colon
TK-10 renal = tested on: TK-10 renal
SW-620 colon = tested on: SW-620 colon
RPMI-8226 leukemia = tested on: RPMI-8226 leukemia
CCRF-CEM leukemia = tested on: CCRF-CEM leukemia

`CCCCCC(=O)OC[n+]1cccc(-c2c(COC(=O)NC(C)C)c(COC(=O)NC(C)C)c3n2CCC3)c1` showed a TGI (EKVX NSCLC) greater than 100 µM, a TGI (BT-549 breast) greater than 100 µM and a TGI (SF-539 CNS) greater than 72.5 µM. For the same molecule, the TGI (SK-MEL-28 melanoma) was greater than 100 µM, the TGI (OVCAR-5 ovarian) was greater than 100 µM and the TGI (HL-60(TB) leukemia) was greater than 100 µM. It also gave a TGI (IGROV1 ovarian) greater than 100 µM, a TGI (MOLT-4 leukemia) greater than 71.1 µM and a TGI (KM12 colon) greater than 100 µM. The TGI (MDA-N) was greater than 100 µM, the TGI (MCF7 breast) was greater than 100 µM and the TGI (SK-MEL-5 melanoma) was greater than 100 µM. The TGI (HCC-2998 colon) was greater than 100 µM, the TGI (HS 578T breast) was greater than 100 µM and the TGI (UO-31 renal) was greater than 100 µM. It also gave a TGI (LOX IMVI melanoma) greater than 100 µM, a TGI (ACHN renal) greater than 100 µM and a TGI (A549 NSCLC) greater than 100 µM. The TGI (NCI/ADR-RES ovarian) was greater than 100 µM, the TGI (NCI-H23 lung) was greater than 100 µM and the TGI (SK-OV-3 ovarian) was greater than 100 µM. It also gave a TGI (HT29 colon) greater than 100 µM, a TGI (MDA-MB-231 breast) greater than 100 µM and a TGI (NCI-H522 lung) of 25.2 µM. The TGI (SF-295 CNS) was greater than 100 µM, the TGI (OVCAR-8 ovarian) was greater than 100 µM and the TGI (T-47D breast) was greater than 100 µM. It also gave a TGI (UACC-62 melanoma) of 89.2 µM, a TGI (SN12C renal) greater than 100 µM and a TGI (SR leukemia) greater than 73.8 µM. For the same molecule, the TGI (UACC-257 melanoma) was greater than 100 µM, the TGI (SNB-75 CNS) was greater than 100 µM and the TGI (MDA-MB-435) was greater than 100 µM. The TGI (DU-145 prostate) was greater than 100 µM, the TGI (HOP-92 NSCLC) was 77.2 µM and the TGI (HCT-15 colon) was greater than 100 µM. It also gave a TGI (U251 CNS) greater than 100 µM, a TGI (CAKI-1 renal) greater than 53.9 µM and a TGI (A498 renal) of 37.7 µM. The TGI (SNB-19 CNS) was greater than 100 µM, the TGI (HOP-62 NSCLC) was greater than 100 µM and the TGI (OVCAR-4 ovarian) was greater than 100 µM. The TGI (786-0 renal) was greater than 100 µM, the TGI (RXF 393 renal) was greater than 67.1 µM and the TGI (NCI-H226 lung) was greater than 100 µM. For the same molecule, the TGI (SF-268 CNS) was greater than 100 µM, the TGI (M14 melanoma) was greater than 100 µM and the TGI (SK-MEL-2 melanoma) was 94.7 µM. The TGI (COLO 205 colon) was greater than 100 µM, the TGI (PC-3 prostate) was greater than 100 µM and the TGI (NCI-H460 lung) was greater than 100 µM. For the same molecule, the TGI (OVCAR-3 ovarian) was greater than 100 µM, the TGI (K-562 leukemia) was greater than 100 µM and the TGI (MALME-3M melanoma) was greater than 100 µM. For the same molecule, the TGI (HCT-116 colon) was greater than 100 µM, the TGI (TK-10 renal) was greater than 100 µM and the TGI (SW-620 colon) was greater than 100 µM. It also gave a TGI (RPMI-8226 leukemia) greater than 100 µM and a TGI (CCRF-CEM leukemia) greater than 61 µM.
In the case of `Nc1ccc2c(=S)c3ccccc3[nH]c2c1`, the TGI (EKVX NSCLC) is reported as greater than 100 µM, the TGI (BT-549 breast) is reported as greater than 100 µM and the TGI (SF-539 CNS) is reported as greater than 100 µM. The TGI (SK-MEL-28 melanoma) was greater than 100 µM, the TGI (OVCAR-5 ovarian) was greater than 100 µM and the TGI (HL-60(TB) leukemia) was greater than 100 µM. The TGI (IGROV1 ovarian) was greater than 100 µM, the TGI (MOLT-4 leukemia) was greater than 84.4 µM and the TGI (KM12 colon) was greater than 100 µM. The TGI (MDA-N) was greater than 100 µM, the TGI (MCF7 breast) was greater than 100 µM and the TGI (SK-MEL-5 melanoma) was greater than 100 µM. For the same molecule, the TGI (HCC-2998 colon) was greater than 100 µM, the TGI (HS 578T breast) was greater than 100 µM and the TGI (UO-31 renal) was greater than 100 µM. The TGI (LOX IMVI melanoma) was greater than 100 µM, the TGI (ACHN renal) was greater than 100 µM and the TGI (A549 NSCLC) was greater than 100 µM. The TGI (NCI/ADR-RES ovarian) was greater than 100 µM, the TGI (NCI-H23 lung) was greater than 100 µM and the TGI (SK-OV-3 ovarian) was 98.5 µM. It also gave a TGI (HT29 colon) greater than 100 µM, a TGI (MDA-MB-231 breast) greater than 100 µM and a TGI (NCI-H522 lung) of 79.2 µM. For the same molecule, the TGI (SF-295 CNS) was greater than 100 µM, the TGI (OVCAR-8 ovarian) was greater than 100 µM and the TGI (T-47D breast) was greater than 59 µM. For the same molecule, the TGI (UACC-62 melanoma) was greater than 100 µM, the TGI (SN12C renal) was greater than 100 µM and the TGI (SR leukemia) was greater than 100 µM. For the same molecule, the TGI (UACC-257 melanoma) was greater than 100 µM, the TGI (SNB-75 CNS) was greater than 100 µM and the TGI (MDA-MB-435) was greater than 100 µM. For the same molecule, the TGI (DU-145 prostate) was greater than 100 µM, the TGI (HOP-92 NSCLC) was 98.9 µM and the TGI (HCT-15 colon) was greater than 100 µM. For the same molecule, the TGI (U251 CNS) was greater than 100 µM, the TGI (CAKI-1 renal) was greater than 100 µM and the TGI (A498 renal) was greater than 100 µM. For the same molecule, the TGI (SNB-19 CNS) was greater than 100 µM, the TGI (HOP-62 NSCLC) was greater than 73 µM and the TGI (OVCAR-4 ovarian) was greater than 100 µM. It also gave a TGI (786-0 renal) greater than 100 µM, a TGI (RXF 393 renal) of 98.9 µM and a TGI (NCI-H226 lung) greater than 100 µM. The TGI (SF-268 CNS) was greater than 100 µM, the TGI (M14 melanoma) was greater than 83.3 µM and the TGI (SK-MEL-2 melanoma) was greater than 100 µM. The TGI (COLO 205 colon) was greater than 100 µM, the TGI (PC-3 prostate) was greater than 100 µM and the TGI (NCI-H460 lung) was greater than 100 µM. The TGI (OVCAR-3 ovarian) was greater than 100 µM, the TGI (K-562 leukemia) was greater than 100 µM and the TGI (MALME-3M melanoma) was greater than 100 µM. The TGI (HCT-116 colon) was greater than 100 µM, the TGI (TK-10 renal) was greater than 100 µM and the TGI (SW-620 colon) was greater than 100 µM. The TGI (RPMI-8226 leukemia) was greater than 100 µM and the TGI (CCRF-CEM leukemia) was greater than 95.4 µM.
